What was measured:
LCLC-97TM1 = assay: cells; assay type: functional, cell-based; settings: Homo sapiens;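 note: cell viability assay measuring growth inhibition of human LCLC-97TM1 cells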
Description: SANGER: Inhibition of human LCLC-97TM1 cell growth in a cell viability assay.

DMS-273 = assay: cells; assay type: functional, cell-based; settings: Homo sapiens
Description: SANGER: Inhibition of human DMS-273 cell growth in a cell viability assay.

NCI-H2228 = assay: cells; assay type: functional, cell-based; settings: Homo sapiens;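 note: growth inhibition of human NCI-H2228 cells, read out by a cell viability assay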
Description: SANGER: Inhibition of human NCI-H2228 cell growth in a cell viability assay.

HT-29 = assay: cells; assay type: functional, cell-based; settings: Homo sapiens;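 note: growth inhibition of human HT-29 cells, read out by a cell viability assay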
Description: SANGER: Inhibition of human HT-29 cell growth in a cell viability assay.

DG-75 = assay: cells; assay type: functional, cell-based; settings: Homo sapiens;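 note: growth inhibition of DG-75 cells, read out with a cell viability assay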
Description: SANGER: Inhibition of human DG-75 cell growth in a cell viability assay.

MDA-MB-157 = assay: cells; assay type: functional, cell-based; settings: Homo sapiens
Description: SANGER: Inhibition of human MDA-MB-157 cell growth in a cell viability assay.

SW48 = assay: cells; assay type: functional, cell-based; settings: Homo sapiens;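 note: growth inhibition of SW48 cells, read out with a cell viability assay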
Description: SANGER: Inhibition of human SW48 cell growth in a cell viability assay.

GCT = assay: cells; assay type: functional, cell-based; settings: Homo sapiens;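 note: GCT cell line proliferation inhibition, read out with a cell viability assay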
Description: SANGER: Inhibition of human GCT cell growth in a cell viability assay.

HGC-27 = assay: cells; assay type: functional, cell-based; settings: Homo sapiens;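 note: growth inhibition of human HGC-27 cells, read out in a cell viability assay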
Description: SANGER: Inhibition of human HGC-27 cell growth in a cell viability assay.

SW626 = assay: cells; assay type: functional, cell-based; settings: Homo sapiens;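 note: growth inhibition of SW626 cells, measured with a cell viability assay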
Description: SANGER: Inhibition of human SW626 cell growth in a cell viability assay.

647-V = assay: cells; assay type: functional, cell-based; settings: Homo sapiens;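 note: growth inhibition of 647-V cells, read out with a cell viability assay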
Description: SANGER: Inhibition of human 647-V cell growth in a cell viability assay.

OVCAR-3 = assay: cells; assay type: functional, cell-based; settings: Homo sapiens;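 note: growth inhibition of human OVCAR-3 cells, determined by a cell viability assay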
Description: SANGER: Inhibition of human OVCAR-3 cell growth in a cell viability assay.

SAS = assay: cells; assay type: functional, cell-based; settings: Homo sapiens;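 note: growth inhibition of SAS cells, read out with a cell viability assay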
Description: SANGER: Inhibition of human SAS cell growth in a cell viability assay.

NCI-H2052 = assay: cells; assay type: functional, cell-based; settings: Homo sapiens;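 note: growth inhibition of NCI-H2052 cells, read out with a cell viability assay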
Description: SANGER: Inhibition of human NCI-H2052 cell growth in a cell viability assay.

MeWo = assay: cells; assay type: functional, cell-based; settings: Homo sapiens;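 note: growth inhibition of MeWo cells, determined by a cell viability readout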
Description: SANGER: Inhibition of human Mewo cell growth in a cell viability assay.

ESS-1 = assay: cells; assay type: functional, cell-based; settings: Homo sapiens;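 note: growth inhibition of human ESS-1 cells, read out by a cell viability assay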
Description: SANGER: Inhibition of human ESS-1 cell growth in a cell viability assay.

SNU-423 = assay: cells; assay type: functional, cell-based; settings: Homo sapiens
Description: SANGER: Inhibition of human SNU-423 cell growth in a cell viability assay.

CAL-39 = assay: cells; assay type: functional, cell-based; settings: Homo sapiens;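 note: cell viability assay measuring growth inhibition of CAL-39 cells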
Description: SANGER: Inhibition of human CAL-39 cell growth in a cell viability assay.

786-0 = assay: cells; assay type: functional, cell-based; settings: Homo sapiens
Description: SANGER: Inhibition of human 786-0 cell growth in a cell viability assay.

TGW = assay: cells; assay type: functional, cell-based; settings: Homo sapiens;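 note: growth inhibition of human TGW cells, read out with a cell viability assay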
Description: SANGER: Inhibition of human TGW cell growth in a cell viability assay.

SCC-4 = assay: cells; assay type: functional, cell-based; settings: Homo sapiens;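 note: growth inhibition of human SCC-4 cells, read out as cell viability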
Description: SANGER: Inhibition of human SCC-4 cell growth in a cell viability assay.

HuP-T3 = assay: cells; assay type: functional, cell-based; settings: Homo sapiens;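 note: HuP-T3 cell growth inhibition, read out with a cell viability assay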
Description: SANGER: Inhibition of human HuP-T3 cell growth in a cell viability assay.

A 172 = assay: cells; assay type: functional, cell-based; settings: Homo sapiens;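 note: growth inhibition of A172 cells, measured with a cell viability readout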
Description: SANGER: Inhibition of human A172 cell growth in a cell viability assay.

MEL-HO = assay: cells; assay type: functional, cell-based; settings: Homo sapiens
Description: SANGER: Inhibition of human MEL-HO cell growth in a cell viability assay.

HEC-1 = assay: cells; assay type: functional, cell-based; settings: Homo sapiens;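 note: growth inhibition of the cell line, read out with a cell viability assay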
Description: SANGER: Inhibition of human HEC-1 cell growth in a cell viability assay.

NCI-H810 = assay: cells; assay type: functional, cell-based; settings: Homo sapiens;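 note: IC50 reflects inhibition of cancer cell line growth, read out with a cell viability assay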
Description: SANGER: Inhibition of human NCI-H810 cell growth in a cell viability assay.

LP-1 = assay: cells; assay type: functional, cell-based; settings: Homo sapiens;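 note: growth inhibition of human LP-1 cells, with the read-out taken from a cell viability assay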
Description: SANGER: Inhibition of human LP-1 cell growth in a cell viability assay.

DK-MG = assay: cells; assay type: functional, cell-based; settings: Homo sapiens;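 note: growth inhibition of DK-MG cells, read out with a cell viability assay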
Description: SANGER: Inhibition of human DK-MG cell growth in a cell viability assay.

MCF7 = assay: cells; assay type: functional, cell-based; settings: Homo sapiens;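 note: growth inhibition of human MCF7 cells, read out with a cell viability assay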
Description: SANGER: Inhibition of human MCF7 cell growth in a cell viability assay.

OAW-28 = assay: cells; assay type: functional, cell-based; settings: Homo sapiens;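 note: growth inhibition of OAW-28 cells, read out with a cell viability assay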
Description: SANGER: Inhibition of human OAW-28 cell growth in a cell viability assay.

LCLC-103H cell line = assay: cells; assay type: functional, cell-based; settings: Homo sapiens
Description: SANGER: Inhibition of human LCLC-103H cell growth in a cell viability assay.

HuO-3N1 = assay: cells; assay type: functional, cell-based; settings: Homo sapiens;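 note: cell viability readout used to measure how strongly compounds suppress proliferation of human HuO-3N1 cells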
Description: SANGER: Inhibition of human HuO-3N1 cell growth in a cell viability assay.

TALL-1 = assay: cells; assay type: functional, cell-based; settings: Homo sapiens;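 note: growth inhibition of cultured human TALL-1 cells, read out by a cell viability assay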
Description: SANGER: Inhibition of human TALL-1 cell growth in a cell viability assay.

COLO-678 = assay: cells; assay type: functional, cell-based; settings: Homo sapiens
Description: SANGER: Inhibition of human COLO-678 cell growth in a cell viability assay.

ACHN = assay: cells; assay type: functional, cell-based; settings: Homo sapiens;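 note: cell viability read-out used to gauge how strongly growth of human ACHN cells is suppressed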
Description: SANGER: Inhibition of human ACHN cell growth in a cell viability assay.

BPH-1 = assay: cells; assay type: functional, cell-based; settings: Homo sapiens;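 note: cell viability assay measuring growth inhibition of human BPH-1 cells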
Description: SANGER: Inhibition of human BPH-1 cell growth in a cell viability assay.

BC1 cell line = assay: SANGER: Inhibition of human BC-1 cell growth in a cell viability assay.; assay type: functional, cell-based
Ca9-22 = assay: cells; assay type: functional, cell-based; settings: Homo sapiens;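 note: growth inhibition of Ca9-22 cells, read out with a cell viability assay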
Description: SANGER: Inhibition of human Ca9-22 cell growth in a cell viability assay.

BT-20 = assay: cells; assay type: functional, cell-based; settings: Homo sapiens;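 note: cell viability assay measuring suppression of growth in human BT-20 cells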
Description: SANGER: Inhibition of human BT-20 cell growth in a cell viability assay.

SK-HEP1 = assay: cells; assay type: functional, cell-based, SK-HEP-1; settings: Homo sapiens;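 note: cell viability readout used to quantify reduction in proliferation of human SK-HEP-1 cells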
Description: SANGER: Inhibition of human SK-HEP-1 cell growth in a cell viability assay.

BEN = assay: cells; assay type: functional, cell-based; settings: Homo sapiens;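 note: growth inhibition of the BEN cell line, read out with a cell viability assay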
Description: SANGER: Inhibition of human BEN cell growth in a cell viability assay.

MC-IXC = assay: cells; assay type: functional, cell-based; settings: Homo sapiens;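 note: growth inhibition of MC-IXC cells, read out with a cell viability assay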
Description: SANGER: Inhibition of human MC-IXC cell growth in a cell viability assay.

SNU-16 = assay: cells; assay type: functional, cell-based; settings: Homo sapiens;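 note: growth inhibition of human SNU-16 cells, determined with a cell viability readout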
Description: SANGER: Inhibition of human NCI-SNU-16 cell growth in a cell viability assay.

SCLC-21H = assay: cells; assay type: functional, cell-based; settings: Homo sapiens;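 note: growth inhibition of cultured human SCLC-21H cells, read out with a cell viability assay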
Description: SANGER: Inhibition of human SCLC-21H cell growth in a cell viability assay.

NCI-H1563 = assay: cells; assay type: functional, cell-based; settings: Homo sapiens;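 note: growth inhibition of human NCI-H1563 cells, read out with a cell viability assay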
Description: SANGER: Inhibition of human NCI-H1563 cell growth in a cell viability assay.

HPAF-II = assay: cells; assay type: functional, cell-based; settings: Homo sapiens;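 note: growth inhibition of HPAF-II cells, read out with a cell viability assay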
Description: SANGER: Inhibition of human HPAF-II cell growth in a cell viability assay.

HCC1806 = assay: cells; assay type: functional, cell-based; settings: Homo sapiens;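 note: growth inhibition of the cancer cell line, determined with a cell viability assay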
Description: SANGER: Inhibition of human HCC1806 cell growth in a cell viability assay.

LN-405 = assay: cells; assay type: functional, cell-based; settings: Homo sapiens
Description: SANGER: Inhibition of human LN-405 cell growth in a cell viability assay.

SW1417 = assay: cells; assay type: functional, cell-based; settings: Homo sapiens;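 note: growth inhibition of human SW1417 cells, read out with a cell viability assay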
Description: SANGER: Inhibition of human SW1417 cell growth in a cell viability assay.

CAL-54 = assay: cells; assay type: functional, cell-based; settings: Homo sapiens;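 note: growth inhibition of CAL-54 cells, read out by a viability measurement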
Description: SANGER: Inhibition of human CAL-54 cell growth in a cell viability assay.

RPMI 8402 = assay: SANGER: Inhibition of human RPMI-8402 cell growth in a cell viability assay.; assay type: functional, cell-based
U-118-MG = assay: cells; assay type: functional, cell-based; settings: Homo sapiens
Description: SANGER: Inhibition of human U-118-MG cell growth in a cell viability assay.

YAPC = assay: cells; assay type: functional, cell-based; settings: Homo sapiens;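 note: growth inhibition of YAPC cells, measured with a cell viability assay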
Description: SANGER: Inhibition of human YAPC cell growth in a cell viability assay.

DOK = assay: cells; assay type: functional, cell-based; settings: Homo sapiens;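 note: cell viability assay read-out, values reflect inhibition of cell growth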
Description: SANGER: Inhibition of human DOK cell growth in a cell viability assay.

NCI-H292 = assay: cells; assay type: functional, cell-based; settings: Homo sapiens;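 note: growth inhibition of NCI-H292 cells, read out with a cell viability assay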
Description: SANGER: Inhibition of human NCI-H292 cell growth in a cell viability assay.

HO-1-N-1 = assay: cells; assay type: functional, cell-based; settings: Homo sapiens;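 note: growth inhibition of human HO-1-N-1 cells, read out with a cell viability assay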
Description: SANGER: Inhibition of human HO-1-N-1 cell growth in a cell viability assay.

KP-N-YN = assay: cells; assay type: functional, cell-based; settings: Homo sapiens;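 note: growth inhibition of KP-N-YN cells, read out with a cell viability assay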
Description: SANGER: Inhibition of human KP-N-YN cell growth in a cell viability assay.

S-117 = assay: cells; assay type: functional, cell-based; settings: Homo sapiens
Description: SANGER: Inhibition of human S-117 cell growth in a cell viability assay.

NCI-H460 = assay: cells; assay type: functional, cell-based; settings: Homo sapiens;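 note: cell viability assay scoring growth inhibition of human NCI-H460 cells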
Description: SANGER: Inhibition of human NCI-H460 cell growth in a cell viability assay.

8505C = assay: cells; assay type: functional, cell-based; settings: Homo sapiens
Description: SANGER: Inhibition of human 8505C cell growth in a cell viability assay.

MDA-MB-361 = assay: cells; assay type: functional, cell-based; settings: Homo sapiens
RO82-W-1 = assay: cells; assay type: functional, cell-based; settings: Homo sapiens;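 note: growth inhibition of human RO82-W-1 cells, measured with a cell viability assay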
Description: SANGER: Inhibition of human RO82-W-1 cell growth in a cell viability assay.

CMK = assay: cells; assay type: functional, cell-based; settings: Homo sapiens
Description: SANGER: Inhibition of human CMK cell growth in a cell viability assay.

A-375 = assay: cells; assay type: functional, cell-based; settings: Homo sapiens
Description: SANGER: Inhibition of human A375 cell growth in a cell viability assay.

Measured: IC50

C/C(O)=C(\C#N)C(=O)Nc1cc(Br)ccc1Br
> 16 µM: all assays above

CCCS(=O)(=O)Nc1ccc(F)c(C(=O)c2c[nH]c3ncc(Cl)cc23)c1F [PLX-4720]
0.674 µM: A-375
8.75 µM: GCT
0.412 µM: MEL-HO
6.82 µM: HCC1806
2.88 µM: HuO-3N1
not listed: DG-75 | LP-1 | TALL-1 | BC1 cell line | SNU-16 | SCLC-21H | RPMI 8402 | CMK
> 10 µM: all other assays above

O=c1cc(N2CCOCC2)oc2c(-c3cccc4c3sc3ccccc34)cccc12
0.153 µM: A 172
0.466 µM: HuO-3N1
1.74 µM: NCI-H292
not listed: DG-75 | LP-1 | TALL-1 | BC1 cell line | SNU-16 | SCLC-21H | RPMI 8402 | CMK
> 2 µM: all other assays above

Reference: ChEMBL document CHEMBL1201861, “Genomics of Drug Sensitity in Cancer screening data, Wellcome Trust Sanger Institute”
